From ChEMBL document CHEMBL1130994, “3-trifluoromethylcarbacephems: synthesis of broad spectrum antibacterial compounds” (1998)
Converted amounts (≈) assume the structure as drawn.

How the values were obtained:
[1] = system: Enterobacter cloacae; assay: Compound was evaluated for inhibitory activity against EB5 Enterobacter cloacae; assay type: functional
[2] = system: Providencia rettgeri; assay: Compound was evaluated for inhibitory activity against C24 Providencia rettgeri; assay type: functional
[3] = system: Streptococcus pyogenes; assay: Compound was evaluated for inhibitory activity against C203 Streptococcus pyogenes Gp.A; No growth; assay type: functional, organism-based
[4] = system: Klebsiella pneumoniae; assay: Compound was evaluated for inhibitory activity against KAE Klebsiella pneumoniae; assay type: functional
[5] = system: Haemophilus influenzae; assay: Compound was evaluated for inhibitory activity against 76 Haemophilus influenzae beta-lactamase; assay type: functional
[6] = system: Escherichia coli; assay: Compound was evaluated for inhibitory activity against TEM Escherichia coli beta-lactamase; assay type: functional
[7] = system: Klebsiella pneumoniae; assay: Compound was evaluated for inhibitory activity against X26 Klebsiella pneumoniae; assay type: functional
[8] = system: Salmonella; assay: Compound was evaluated for inhibitory activity against X514 Salmonella; assay type: functional
[9] = system: Acinetobacter; assay: Compound was evaluated for inhibitory activity against AC12 Acinetobacter; assay type: functional
[10] = system: Staphylococcus aureus; assay: Compound was evaluated for inhibitory activity against X400S Staphylococcus aureus methicillin resistant and macrolide resistant; assay type: functional
[11] = system: Enterococcus faecalis; assay: Compound was evaluated for inhibitory activity against 2041 Enterococcus faecalis Gp.D streptococcus penicillin susceptible; assay type: functional
[12] = system: Serratia; assay: Compound was evaluated for inhibitory activity against SE3 Serratia; assay type: functional
[13] = system: Providencia stuartii; assay: Compound was evaluated for inhibitory activity against PR33 Providencia stuartii; assay type: functional
[14] = system: Enterobacter cloacae; assay: Compound was evaluated for inhibitory activity against 265a Enterobacter cloacae beta-lactamase; assay type: functional
[15] = system: Citrobacter; assay: Compound was evaluated for inhibitory activity against CF17 Citrobacter; assay type: functional
[16] = system: Klebsiella aerogenes; assay: Compound was evaluated for inhibitory activity against C32 Enterobacter aerogenes; assay type: functional
[17] = system: Staphylococcus aureus; assay: Compound was evaluated for inhibitory activity against S13E Staphylococcus aureus methicillin resistant penicillin resistant macrolide sensitive (PBP2a producer); assay type: functional
[18] = system: Klebsiella aerogenes; assay: Compound was evaluated for inhibitory activity against EB17 Enterobacter aerogenes; assay type: functional
[19] = system: Staphylococcus aureus; assay: Compound was evaluated for inhibitory activity against X1.1 Staphylococcus aureus penicillin sensitive; assay type: functional
[20] = system: Haemophilus influenzae; assay: Compound was evaluated for inhibitory activity against C.L Haemophilus influenzae ampicillin sensitive; assay type: functional
[21] = system: Serratia; assay: Compound was evaluated for inhibitory activity against X99 Serratia; assay type: functional
[22] = system: Morganella morganii; assay: Compound was evaluated for inhibitory activity against PR15 Morganella morganii; assay type: functional
[23] = system: Escherichia coli; assay: Compound was evaluated for inhibitory activity against EC14 Escherichia coli sensitive; assay type: functional
[24] = system: Streptococcus pneumoniae; assay: Compound was evaluated for inhibitory activity against Park S Streptococcus pneumoniae; No growth; assay type: functional, organism-based
[25] = system: Streptococcus pneumoniae; assay: 32 Compound was evaluated for inhibitory activity against Park S Streptococcus pneumoniae; assay type: functional
[26] = system: Streptococcus pyogenes; assay: Compound was evaluated for inhibitory activity against C203 Streptococcus pyogenes Gp.A; assay type: functional
[27] = system: Streptococcus pneumoniae; assay: Compound was evaluated for inhibitory activity against Park S Streptococcus pneumoniae; assay type: functional
[28] = system: Enterococcus faecalis; assay: Compound was evaluated penicillin susceptible; assay type: functional

Row | SMILES | MIC [1] | MIC [2] | MIC [4] | MIC [5] | MIC [6] | MIC [7] | MIC [8] | MIC [9] | MIC [10] | MIC [12] | MIC [13] | MIC [14] | MIC [15] | MIC [16] | MIC [17] | MIC [18] | MIC [19] | MIC [20] | MIC [21] | MIC [22] | further results
1 | Nc1ccc([C@@H](N)C(=O)N[C@@H]2C(=O)N3C(C(=O)O)=C(C(F)(F)F)CC[C@H]23)cc1 | 16 µM (≈ 6.37 µg/mL) | 16 µM (≈ 6.37 µg/mL) | 16 µM (≈ 6.37 µg/mL) | 1 µM (≈ 0.398 µg/mL) | 1 µM (≈ 0.398 µg/mL) | 0.5 µM (≈ 0.199 µg/mL) | 0.25 µM (≈ 0.0996 µg/mL) | 64 µM (≈ 25.5 µg/mL) | 64 µM (≈ 25.5 µg/mL) | 32 µM (≈ 12.7 µg/mL) | 32 µM (≈ 12.7 µg/mL) | 32 µM (≈ 12.7 µg/mL) | 16 µM (≈ 6.37 µg/mL) | 8 µM (≈ 3.19 µg/mL) | 64 µM (≈ 25.5 µg/mL) | 4 µM (≈ 1.59 µg/mL) | 2 µM (≈ 0.797 µg/mL) | 1 µM (≈ 0.398 µg/mL) | 16 µM (≈ 6.37 µg/mL) | 8 µM (≈ 3.19 µg/mL) | MIC [3]: No growth; MIC [11]: 16 µM (≈ 6.37 µg/mL); MIC [23]: 0.5 µM (≈ 0.199 µg/mL); MIC [24]: No growth
2 | N[C@@H](C(=O)N[C@@H]1C(=O)N2C(C(=O)O)=C(C(F)(F)F)CC[C@H]12)c1cccc(F)c1 | 16 µM (≈ 6.42 µg/mL) | 16 µM (≈ 6.42 µg/mL) | 16 µM (≈ 6.42 µg/mL) | 2 µM (≈ 0.803 µg/mL) | 2 µM (≈ 0.803 µg/mL) | 2 µM (≈ 0.803 µg/mL) | 2 µM (≈ 0.803 µg/mL) | 32 µM (≈ 12.8 µg/mL) | 64 µM (≈ 25.7 µg/mL) | 64 µM (≈ 25.7 µg/mL) | 16 µM (≈ 6.42 µg/mL) | 32 µM (≈ 12.8 µg/mL) | 16 µM (≈ 6.42 µg/mL) | 16 µM (≈ 6.42 µg/mL) | 32 µM (≈ 12.8 µg/mL) | 8 µM (≈ 3.21 µg/mL) | 2 µM (≈ 0.803 µg/mL) | 2 µM (≈ 0.803 µg/mL) | 32 µM (≈ 12.8 µg/mL) | 32 µM (≈ 12.8 µg/mL) | MIC [11]: 32 µM (≈ 12.8 µg/mL); MIC [25]: 0.25 µM (≈ 0.1 µg/mL); MIC [26]: 0.06 µM (≈ 0.0241 µg/mL); MIC [23]: 4 µM (≈ 1.61 µg/mL)
3 | N[C@@H](C(=O)N[C@@H]1C(=O)N2C(C(=O)O)=C(C(F)(F)F)CC[C@H]12)c1ccc(O)cc1 | 1 µM (≈ 0.399 µg/mL) | 4 µM (≈ 1.6 µg/mL) | 1 µM (≈ 0.399 µg/mL) | 0.5 µM (≈ 0.2 µg/mL) | 0.5 µM (≈ 0.2 µg/mL) | 0.06 µM (≈ 0.024 µg/mL) | 0.06 µM (≈ 0.024 µg/mL) | 16 µM (≈ 6.39 µg/mL) | 64 µM (≈ 25.6 µg/mL) | 16 µM (≈ 6.39 µg/mL) | 1 µM (≈ 0.399 µg/mL) | 1 µM (≈ 0.399 µg/mL) | 4 µM (≈ 1.6 µg/mL) | 0.25 µM (≈ 0.0998 µg/mL) | 32 µM (≈ 12.8 µg/mL) | 0.5 µM (≈ 0.2 µg/mL) | 0.5 µM (≈ 0.2 µg/mL) | 0.5 µM (≈ 0.2 µg/mL) | 2 µM (≈ 0.799 µg/mL) | 16 µM (≈ 6.39 µg/mL) | MIC [26]: 0.06 µM (≈ 0.024 µg/mL); MIC [27]: 0.25 µM (≈ 0.0998 µg/mL); MIC [23]: 0.25 µM (≈ 0.0998 µg/mL); MIC [28]: 32 µM (≈ 12.8 µg/mL)
4 | Cc1cccc([C@@H](N)C(=O)N[C@@H]2C(=O)N3C(C(=O)O)=C(C(F)(F)F)CC[C@H]23)c1 | 16 µM (≈ 6.36 µg/mL) | 16 µM (≈ 6.36 µg/mL) | 16 µM (≈ 6.36 µg/mL) | 2 µM (≈ 0.795 µg/mL) | 4 µM (≈ 1.59 µg/mL) | 1 µM (≈ 0.397 µg/mL) | 8 µM (≈ 3.18 µg/mL) | 32 µM (≈ 12.7 µg/mL) | 4 µM (≈ 1.59 µg/mL) | 32 µM (≈ 12.7 µg/mL) | 8 µM (≈ 3.18 µg/mL) | 32 µM (≈ 12.7 µg/mL) | 16 µM (≈ 6.36 µg/mL) | 32 µM (≈ 12.7 µg/mL) | 4 µM (≈ 1.59 µg/mL) | 4 µM (≈ 1.59 µg/mL) | 1 µM (≈ 0.397 µg/mL) | 1 µM (≈ 0.397 µg/mL) | 16 µM (≈ 6.36 µg/mL) | 8 µM (≈ 3.18 µg/mL) | MIC [11]: 8 µM (≈ 3.18 µg/mL); MIC [26]: 0.03 µM (≈ 0.0119 µg/mL); MIC [27]: 0.25 µM (≈ 0.0993 µg/mL); MIC [23]: 2 µM (≈ 0.795 µg/mL)
